Experiments:
[1] = test system: antigen-induced flare-up reaction in a mouse; test: Suppressive action against antigen-induced flare-up reaction in a mouse; format: in vivo, BALB/c female mice; details: 3% ointment
Experimental: (§1) Seven week old BALB/c female (SPF) mice of were selected as subjects. According to a method of Tanaka, et al. (Allergy, 46, pages 42-48(1997)), egg white albumin (final concentration: 2 μg/mL) and aluminum hydroxide gel (final concentration: 10 mg/mL) were suspended in physiological saline and 0.5 mL of the suspension was administered to effect intraperitoneal sensitization on the first day of the test. On the 14th day of the test, an additional sensitization was carried out under the same conditions. Further, on the 28th day of the test, 25 μL of egg albumin (a 20 μg/mL solution in physiological saline) was intradermally administered to the right ear of a mouse to induce a swelling reaction.
This swelling reaction reached its peak at 4 hours after the challenge by the antigen. Even after 24 to 48 hours, a significant swelling reaction was noted as compared with the control in which antigen was merely challenged (not sensitized). […] On the contrary, the swelling from 24 to 48 hours after the challenge is thought to be the so-called delayed-type swelling reaction accompanied by infiltration of eosinophils, neutrophils and lymphocytes. In addition, a flare-up reaction having a peak at 24 hours after the challenge appeared on the ear of the antigen-induced site. Like swelling, flare-up is an important symptom of inflammation. Although the mechanism of the flare-up reaction is ambiguous, it may be a flare-up reaction of a delayed type in view of the time course of its expression. As such, this model animal in which the inflammation of both immediate and delayed types are induced is appropriate as a model animal for atopic dermatitis. In the following experiment, the effectiveness of the therapeutic agent for dermatitis according to the present invention was tested using the said model animal.
Each of a vehicle (control) and an agent for the test (the therapeutic agent for dermatitis according to the present invention or a positive control) was applied to the antigen-induced site (right auricle) of a mouse to induce a swelling reaction in accordance with Example 2 at 2 hours before and 4 hours after the challenge. The right ear was observed by naked eye and the degree of flare-up was scored according to the following standard:
1: in such a degree that a flare-up was confirmed, the color is clear red or pale red and the size was small
2: between score 3 and score 1
3: color of the flare-up was clearly red and the size of the flare-up was big

[2] = test system: eosinophil infiltration into the antigen-induced ear of a mouse; test: Suppressive action against eosinophil infiltration into the antigen-induced ear of a mouse (eosinophil peroxidase activity); format: in vivo, BALB/c female mice; details: 3% ointment; ear tissue 24 hours after challenge; compared with positive control
Experimental: as §1
The degree of eosinophil infiltration into the ear of a mouse was determined by measuring eosinophil peroxidase activity in a skin tissue homogenate and using the measurement as an index. […] This homogenate was centrifuged at 20,000 rpm for 20 minutes (using KR-20000T, Kubota) and the peroxidase activity in the supernatant fluid was measured using o-phenylenediamine dihydrochloride (Sigma) as a substrate. By measuring the absorbance of radiation having a wavelength of 492 nm, the resulting reaction curve was substantially linear relative to the dosage of the test drug and the degree of eosinophil infiltration was compared by defining the eosinophil infiltration of the control as 100%.

ear of a normal mouse = test: Influence of repeated application on the ear thickness of a normal mouse; format: in vivo; details: nine times in total, 2 hours after final application
Experimental: The therapeutic agent for dermatitis according to the present invention or the positive control (steroid preparation) was applied twice daily to the right ear of a normal mouse for a total of nine times and, 2 hours after the final application, the thickness of the ear was measured.

[3] = test system: guinea pig eosinophils in the abdominal cavity; test: Suppression of LTB4-induced chemotaxis of guinea pig eosinophils (modified Boyden chamber); format: cell-based, Hartley male guinea pigs; details: Cavia porcellus, Eosinophil; chemotaxis induced by 10^-7 M LTB4, 37° C., 2 hours; 5 trials
Experimental: The suppressive effect of the compounds of the present invention on the leukotriene B4 or LTB4 induced chemotaxis of guinea pig eosinophils in the abdominal cavity were investigated using a modified Boyden chamber method. The guinea pig eosinophils in the abdominal cavity were prepared using Hartley male guinea pigs according to the conventional method. The chemotaxis of the eosinophils was induced by 10^−7 M of leukotriene B4 or LTB4 in 37° C. for 2 hours in the presence or absence of the test drug (the therapeutic agent for dermatitis of the present invention). After the chemotaxis cells were fixed and stained using the Giemsa stain, the number of chemotaxis cells was counted in visual fields of a microscope (×400). The experiments were repeated several times and the suppression rate of the test drug was calculated by the following formula:
Suppression Rate (%)=100×[(the number of chemotaxis eosinophils in control group)—(the number of chemotaxis eosinophils in the test drug group)]/[(the number of chemotaxis eosinophils in control group)—(the number of spontaneous chemotaxis eosinophils)]
The 50% inhibitory concentration (IC50) was calculated from the regression line obtained by the least square method based on the calculated suppression rates.

[4] = target: T1, phosphodiesterase type II (PDE II) (Homo sapiens, UniProt O00408); test: Inhibitory action against phosphodiesterase type II; format: biochemical; details: 100 μM; PDE II from human platelets
T1 construct: phosphodiesterase type II (PDE II) partially purified from human platelets; from tissue; host or cells: human platelets
T1 sequence (O00408 whole entry): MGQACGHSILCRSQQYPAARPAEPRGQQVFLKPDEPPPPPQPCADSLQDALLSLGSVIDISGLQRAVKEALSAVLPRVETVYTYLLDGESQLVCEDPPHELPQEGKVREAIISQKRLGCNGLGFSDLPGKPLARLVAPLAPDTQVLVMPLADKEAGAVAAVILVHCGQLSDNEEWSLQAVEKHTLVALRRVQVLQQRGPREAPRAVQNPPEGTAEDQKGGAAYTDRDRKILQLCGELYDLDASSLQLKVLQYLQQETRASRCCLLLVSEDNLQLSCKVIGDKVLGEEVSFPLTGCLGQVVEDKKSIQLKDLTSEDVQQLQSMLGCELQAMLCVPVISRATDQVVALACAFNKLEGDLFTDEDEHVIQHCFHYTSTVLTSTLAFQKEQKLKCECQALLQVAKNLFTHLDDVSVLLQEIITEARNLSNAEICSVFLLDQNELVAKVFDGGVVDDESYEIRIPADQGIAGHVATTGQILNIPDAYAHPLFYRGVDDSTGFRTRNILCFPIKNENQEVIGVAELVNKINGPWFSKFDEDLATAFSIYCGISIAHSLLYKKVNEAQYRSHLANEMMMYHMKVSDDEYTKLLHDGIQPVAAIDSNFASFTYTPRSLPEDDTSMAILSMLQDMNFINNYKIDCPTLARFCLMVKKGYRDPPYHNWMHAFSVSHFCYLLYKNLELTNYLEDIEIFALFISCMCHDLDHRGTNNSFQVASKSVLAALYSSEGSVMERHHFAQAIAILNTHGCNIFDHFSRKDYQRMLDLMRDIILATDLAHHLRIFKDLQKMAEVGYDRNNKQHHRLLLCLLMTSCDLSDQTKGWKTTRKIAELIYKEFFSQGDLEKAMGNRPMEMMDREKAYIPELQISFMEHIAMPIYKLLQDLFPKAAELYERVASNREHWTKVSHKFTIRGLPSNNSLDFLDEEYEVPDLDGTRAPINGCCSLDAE
From the text: (§2) The inhibitory action of the compounds of the present invention against activities of various phosphodiesterase (PDE) isozymes were investigated using the conventional method. Each of the inhibitory action of the compounds of the present invention on the activities of phosphodiesterase type II (PDE II) partially purified from human platelets, phosphodiesterase type III […] partially purified from human platelets, phosphodiesterase type IV (PDE IV) partially purified from human U937 promonocytic leukemia cells and phosphodiesterase type V (PDE V) partially purified from human platelets were measured.

[5] = target: T2, phosphodiesterase type III (Homo sapiens, UniProt Q14432); test: Inhibitory action against phosphodiesterase type III; format: biochemical; details: 100 μM; PDE III from human platelets
T2 construct: phosphodiesterase type III […] partially purified from human platelets; from tissue; host or cells: human platelets
T2 sequence (Q14432 whole entry): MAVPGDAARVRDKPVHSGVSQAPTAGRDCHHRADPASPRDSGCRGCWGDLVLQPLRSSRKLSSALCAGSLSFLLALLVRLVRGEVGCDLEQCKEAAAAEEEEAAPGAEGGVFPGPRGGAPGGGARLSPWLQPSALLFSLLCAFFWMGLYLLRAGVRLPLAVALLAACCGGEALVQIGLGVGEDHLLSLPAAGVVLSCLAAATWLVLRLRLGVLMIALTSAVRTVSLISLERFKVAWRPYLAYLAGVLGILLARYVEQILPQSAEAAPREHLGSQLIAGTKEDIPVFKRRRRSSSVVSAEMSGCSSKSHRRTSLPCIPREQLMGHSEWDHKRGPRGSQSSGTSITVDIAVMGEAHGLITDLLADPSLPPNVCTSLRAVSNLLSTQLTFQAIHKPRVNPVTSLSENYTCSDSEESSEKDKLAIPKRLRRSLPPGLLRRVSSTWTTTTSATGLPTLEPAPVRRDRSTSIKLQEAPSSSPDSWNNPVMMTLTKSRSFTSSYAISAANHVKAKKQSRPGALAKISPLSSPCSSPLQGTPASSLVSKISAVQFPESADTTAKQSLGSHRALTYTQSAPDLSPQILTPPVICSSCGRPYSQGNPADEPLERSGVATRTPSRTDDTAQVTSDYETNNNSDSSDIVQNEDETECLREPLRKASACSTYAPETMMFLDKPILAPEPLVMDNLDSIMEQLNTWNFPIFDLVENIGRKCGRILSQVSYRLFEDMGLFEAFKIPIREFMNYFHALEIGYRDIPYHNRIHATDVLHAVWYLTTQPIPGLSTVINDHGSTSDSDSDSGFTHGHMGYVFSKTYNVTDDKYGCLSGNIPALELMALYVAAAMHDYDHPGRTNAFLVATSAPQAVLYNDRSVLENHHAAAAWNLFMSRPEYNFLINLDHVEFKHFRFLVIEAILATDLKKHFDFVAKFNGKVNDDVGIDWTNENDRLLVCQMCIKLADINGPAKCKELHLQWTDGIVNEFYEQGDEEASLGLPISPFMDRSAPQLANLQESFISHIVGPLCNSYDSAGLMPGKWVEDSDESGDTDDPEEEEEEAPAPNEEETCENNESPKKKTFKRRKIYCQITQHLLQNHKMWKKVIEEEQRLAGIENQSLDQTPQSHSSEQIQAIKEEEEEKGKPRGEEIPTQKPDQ
From the text: as §2

[6] = test system: phosphodiesterase type IV (PDE IV); test: Inhibitory action against phosphodiesterase type IV; format: biochemical, human
From the text: as §2

[7] = target: T3, phosphodiesterase type V (PDE V) (Homo sapiens, UniProt O76074); test: Inhibitory action against phosphodiesterase type V; format: biochemical; details: 100 μM; PDE V from human platelets
T3 construct: phosphodiesterase type V (PDE V) partially purified from human platelets; from tissue; host or cells: human platelets
From the text: as §2

## Nc1ccc2c(=O)n(Cc3ccccc3)c(=O)n(-c3ccccc3)c2n1 [Compound 1, 7-amino-3-benzyl-1,2,3,4-tetrahydro-1-phenylpyrido[2,3-d]pyrimidin-2,4-dione]
[1]; 4 hr after challenge
  Suppression Rate of flare-up score at 4 hr after Challenge: (0.0%)
[1]; 4 hr after challenge, score 0-3
  Flare-up Score at 4 hr after Challenge: 0.8 ± 0
[1]; 24 hr after challenge
  Suppression Rate of flare-up score at 24 hr after Challenge: (32.0%)
[1]; 24 hr after challenge, score 0-3
  Flare-up Score at 24 hr after Challenge: 1.7 ± 0.2
[2]
  eosinophil infiltration suppressing action: same degree as that of the steroid preparation of the positive control
Ear of a normal mouse; 3% ointment applied twice daily
  Ear Thickness: 22.3 ± 0.2 × 0.01 mm
Ear of a normal mouse; 10% ointment applied twice daily
  Ear Thickness: 22.3 ± 0.5 × 0.01 mm
[3]
  IC50: 1900 ± 400 nM
[4]
  suppression activity against PDE II: 6%
[5]
  suppression activity against PDE III: 22%
[6]
  dose dependence of PDE IV inhibitory effect: dose dependent
[6]; 100 μM, PDE IV from human U937 promonocytic leukemia cells
  suppression activity against PDE IV: 82%
[6]; PDE IV versus PDE II, III and V at 100 μM
  PDE isozyme selectivity: PDE IV selective inhibitory effect
[7]
  suppression activity against PDE V: 15%
other
  melting point: 261 to 262 °C

Source: patent US6440978B2, “Therapeutic agent for dermatitis” (Nippon Zoki Pharmaceutical Co., Ltd., priority 2000, dated 2002)
